Values quoted from earlier work, collected in PMC11600176 (JACS Au, 2024).

Settings: aerated acetonitrile

CCCN1C(=O)c2cccc3c(N)ccc(c23)C1=O [N-propyl-4-amino-1,8-naphthalimide]
Φf fluorescence quantum yield of the standard: 0.48
